Test results reported in patent publication US20110190503A1, “Thiazolopyridin-2-yloxy-phenyl and thiazolopyrazin-2-yloxy-phenyl amines as modulators of leukotriene A4 hydrolase” (Janssen Pharmaceutical NV, priority 2008, published 2011).
Like-named read-outs stand apart in the source and are kept apart here.

Experiments:
[1] = test system: LTB4 production by calcium ionophore-stimulated murine blood; test: LTB4 production by calcium ionophore-stimulated murine blood for LTA4H inhibitor activity; format: cell-based, CD-1 mice; conditions: Mus musculus
In short: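 Heparinized CD-1 mouse blood pre-incubated with compound 15 min at 37° C, then stimulated with calcium ionophore A23187 (7 μg/mL final) for 30 min. LTB4 in supernatant measured by enzyme immunoassay; values are single or averaged determinations, with SD for n≥3.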

neutrophil influx = test: Murine arachidonic acid-induced inflammation model: neutrophil influx in ear, myeloperoxidase activity (% Inh. MPO); format: in vivo; conditions: Mus musculus, female Balb/c mice, 30 mg/kg oral gavage, ear biopsy 3 h after topical arachidonic acid, number of determinations in parentheses
In short: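 Female Balb/c mice were dosed orally at 30 mg/kg (20% cyclodextran/H2O). Ear biopsies at 3 h; MPO activity by TMB, A405, acetone ear subtracted; inhibition versus vehicle-dosed mice.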

[2] = murine blood diluted 1 in 15, calcium ionophore A23187, LTB4 by immunoassay, read-out: IC50

| SMILES | IC50 [1, 2] [nM] | inhibition in vivo at 30 mg/kg (neutrophil influx) [%] | IC50 [1] [nM] |
| --- | --- | --- | --- |
| CC(=O)N1C[C@H]2C[C@@H]1CN2Cc1ccc(Oc2nc3ncccc3s2)cc1 [Example 265, 2-(4-{[(1R,4R)-5-Acetyl-2,5-diazabicyclo[2.2.1]hept-2-yl]methyl}phenoxy)[1,3]thiazolo[4,5-b]pyridine] | 23 | 90.8 | – |
| O=C1CCCN1C1CCN(Cc2ccc(Oc3nc4ncccc4s3)cc2)CC1 [Example 83, 1-{1-[4-([1,3]Thiazolo[4,5-b]pyridin-2-yloxy)benzyl]piperidin-4-yl}pyrrolidin-2-one] | 55 | 88.2 | – |
| CC(=O)N1CC2CN(CCc3ccc(Oc4nc5ncccc5s4)cc3)CC2C1 (stereo not drawn) [Example 73, 2-{4-[2-(5-Acetylhexahydropyrrolo[3,4-c]pyrrol-2(1H)-yl)ethyl]phenoxy}[1,3]thiazolo[4,5-b]pyridine] | 50 | 79.4 | – |
| NC(=O)N1C[C@@H]2C[C@H]1CN2CCc1ccc(Oc2nc3ncccc3s2)cc1 [Example 45, (1S,4S)-5-{2-[4-([1,3]Thiazolo[4,5-b]pyridin-2-yloxy)phenyl]ethyl}-2,5-diazabicyclo[2.2.1]heptane-2-carboxamide] | 170 | 71.1 | – |
| NC(=O)N1C[C@@H]2C[C@H]1CN2Cc1ccc(Oc2nc3ncccc3s2)cc1 [Example 106, (1S,4S)-5-[4-([1,3]Thiazolo[4,5-b]pyridin-2-yloxy)benzyl]-2,5-diazabicyclo[2.2.1]heptane-2-carboxamide] | 79 | 95.2 | – |
| NC(=O)N1C[C@H]2C[C@@H]1CN2Cc1ccc(Oc2nc3ncccc3s2)cc1 [Example 266, (1R,4R)-5-[4-([1,3]Thiazolo[4,5-b]pyridin-2-yloxy)benzyl]-2,5-diazabicyclo[2.2.1]heptane-2-carboxamide] | 140 | 85.8 | – |
| CC(=O)N1C[C@H]2C[C@@H]1CN2CCOc1ccc(Oc2nc3ncccc3s2)cc1 [Example 267, 2-(4-{2-[(1R,4R)-5-Acetyl-2,5-diazabicyclo[2.2.1]hept-2-yl]ethoxy}phenoxy)[1,3]thiazolo[4,5-b]pyridine] | 110 | 90.6 | – |
| NC(=O)C1CCN(CCOc2ccc(Oc3nc4ncccc4s3)cc2)CC1 [Example 31, 1-{2-[4-([1,3]Thiazolo[4,5-b]pyridin-2-yloxy)phenoxy]ethyl}piperidine-4-carboxamide] | 31 | 70.5 | – |
| CC(=O)N[C@H]1C[C@H]2CC[C@@H](C1)N2Cc1ccc(Oc2nc3ncccc3s2)cc1 [Example 116, meso-N-{(3-endo)-8-[4-([1,3]Thiazolo[4,5-b]pyridin-2-yloxy)benzyl]-8-azabicyclo[3.2.1]oct-3-yl}acetamide] | – | 70 | 22 ± 17 |
| CC(=O)N[C@@H]1C[C@H]2CC[C@@H](C1)N2Cc1ccc(Oc2nc3ncccc3s2)cc1 [Example 109, meso-N-{(3-exo)-8-[4-([1,3]Thiazolo[4,5-b]pyridin-2-yloxy)benzyl]-8-azabicyclo[3.2.1]oct-3-yl}acetamide] | – | 71.5 | 60 |
| CC(=O)N1C[C@@H]2C[C@H]1CN2CCc1ccc(Oc2nc3ncccc3s2)cc1 [Example 75, 2-(4-{2-[(1S,4S)-5-Acetyl-2,5-diazabicyclo[2.2.1]hept-2-yl]ethyl}phenoxy)[1,3]thiazolo[4,5-b]pyridine] | 44 | 68.1 | – |
| CC(=O)N1C[C@H]2CC[C@@H](C1)N2CCc1ccc(Oc2nc3ncccc3s2)cc1 [Example 55, meso-2-(4-{2-[3-Acetyl-3,8-diazabicyclo[3.2.1]oct-8-yl]ethyl}phenoxy)[1,3]thiazolo[4,5-b]pyridine] | 55 | 73.5 | – |
| O=C1CCCN1C1CCN(CCOc2ccc(Oc3nc4ncccc4s3)cc2)CC1 [Example 32, 1-(1-{2-[4-([1,3]Thiazolo[4,5-b]pyridin-2-yloxy)phenoxy]ethyl}piperidin-4-yl)pyrrolidin-2-one] | 22 | 76 | – |
| CC(=O)N1C[C@@H]2C[C@H]1CN2CCOc1ccc(Oc2nc3ncccc3s2)cc1 [Example 14, 2-(4-{2-[(1S,4S)-5-Acetyl-2,5-diazabicyclo[2.2.1]hept-2-yl]ethoxy}phenoxy)[1,3]thiazolo[4,5-b]pyridine] | 18 ± 13 | 72.3 | – |
| CC(=O)N1C[C@@H]2C[C@H]1CN2Cc1ccc(Oc2nc3ncc(C)cc3s2)cc1 [Example 121, 2-(4-{[(1S,4S)-5-Acetyl-2,5-diazabicyclo[2.2.1]hept-2-yl]methyl}phenoxy)-6-methyl[1,3]thiazolo[4,5-b]pyridine] | 120 ± 42 | 83 | – |
